{
  "source": "ChEMBL document CHEMBL1149221",
  "about": "“Terephthalamide derivatives as mimetics of the helical region of Bak peptide target Bcl-xL protein” (Bioorg Med Chem Lett, 2004)",
  "data": [
    {"biological_target": "Bcl-2-like protein 1 (Homo sapiens, UniProt Q07817)", "sequence (Q07817 whole entry)": "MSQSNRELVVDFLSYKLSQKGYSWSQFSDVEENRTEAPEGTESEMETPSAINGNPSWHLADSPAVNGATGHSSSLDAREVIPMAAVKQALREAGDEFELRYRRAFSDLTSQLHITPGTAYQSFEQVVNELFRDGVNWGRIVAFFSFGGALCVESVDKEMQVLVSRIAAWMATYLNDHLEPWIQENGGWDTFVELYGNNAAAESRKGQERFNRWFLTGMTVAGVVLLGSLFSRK", "experiment": "Binding affinity for Bcl-xL was assessed by a fluorescence polarization assay using a fluorescently labeled 16-mer Bak-peptide", "units": {"Ki": "µM"}, "values": [
      {"compound": "CC(C)CC(NC(=O)c1ccc(C(=O)N[C@@H](CC(C)C)C(=O)O)c(Oc2ccccc2)c1)C(=O)O", "note": "(stereo partly specified)", "Ki": "> 30"},
      {"compound": "CC(C)C[C@H](NC(=O)c1ccc(C(=O)N(C(C)C)C(C)C)cc1Oc1ccccc1)C(=O)O", "Ki": 1.01},
      {"compound": "CC(C)C[C@H](NC(=O)c1ccc(C(=O)N(C(C)C)C(C)C)cc1Oc1cccc2ccccc12)C(=O)O", "Ki": 7.63},
      {"compound": "COC(=O)[C@H](C)NC(=O)c1ccc(C(=O)N(C(C)C)C(C)C)cc1OC(C)C", "Ki": 11},
      {"compound": "CC(C)C[C@H](NC(=O)c1ccc(C(=O)N(CC(C)C)C(C(=O)O)C(C)C)cc1OC(C)C)C(=O)O", "note": "(stereo partly specified)", "Ki": "> 30"},
      {"compound": "COC(=O)[C@@H](CC(C)C)NC(=O)c1ccc(C(=O)N(C(C)C)C(C)C)cc1OC", "Ki": 1.78},
      {"compound": "COC(=O)[C@@H](NC(=O)c1ccc(C(=O)N(C(C)C)C(C)C)cc1OC(C)C)c1ccccc1", "Ki": 10.9},
      {"compound": "CC(C)C[C@H](NC(=O)c1ccc(C(=O)N(CC(C)C)C(C)C(=O)O)cc1OC(C)C)C(=O)O", "note": "(stereo partly specified)", "Ki": "> 30"},
      {"compound": "COC(=O)CNC(=O)c1ccc(C(=O)N(C)C)cc1", "Ki": "> 30"},
      {"compound": "CC(C)CC(NC(=O)c1ccc(C(=O)N[C@@H](CC(C)C)C(=O)O)c(Oc2cccc3ccccc23)c1)C(=O)O", "note": "(stereo partly specified)", "Ki": "> 30"},
      {"compound": "COC(=O)[C@@H](NC(=O)c1ccc(C(=O)N(C(C)C)C(C)C)cc1OC(C)C)C(C)C", "Ki": 5.85}
    ]}
  ]
}
